Results reported in patent US20240382450A1, “COMPOSITION OF B-CAR[…] A STATIN, AND METHODS OF USING SAME” (OrthoTreat Ltd., priority 2021, published 2024).

Experiments:
femoral bone fracture = assay: Bone quality examined after 35 treatment days (decalcified and non-decalcified); type: in vivo, Sprague Dawley rats; details: following 35 treatment days, none-decalcification
Protocol: Pseudo-fractures were created by making a trough on one surface of the femoral shaft through one side of the cortex. The compositions were administered locally by daily injection. Animals: Naive male Sprague Dawley rats (SD rats), 12 weeks old, around 350 g. Right leg was treated while the left leg serves as a control (vehicle).
Bone quality was examined after 35 treatment days. For the G1−B+L group, cell proliferation was improved by >44% compared to untreated bone.
Bone endosteal & periosteal proliferation, defect fill and bone quality were evaluated following 35 treatment days of femoral bone fracture with β-caryophyllene (none-decalcification).

[1] = test system: Human primary osteoblast cells; details: osteoblasts, 24 and 96 hours, tested 0 to 6,561 μM
Protocol: (§1) In vitro cytotoxicity & proliferation assay (basal) are being performed on human osteoblasts and stem cells monolayers.
Human primary osteoblast cells are maintained in a 37° C. humidified incubator with 5% CO2 atmosphere. Cells are cultured in Primary Osteoblast Media containing Primary Osteoblast Culture Supplement and 1% of the penicillin/streptomycin stock solution.

MUTZ-3 cells = details: MUTZ-3, 24 and 96 hours, tested 0 to 6,561 μM
Protocol: as §1
As a human primary osteoclast cell is unable to proliferate, MUTZ-3, a human cell line model for osteoclast differentiation is also being used. MUTZ-3 cells are maintained in a 37° C. humidified incubator with 5% CO2 atmosphere. Cells are cultured in Dulbecco's modified Eagle's Medium (DMEM) supplemented with 10% foetal calf serum and 1% of the penicillin streptomycin stock solution.

In the case of (−)-β-caryophyllene, the bone quality (femoral bone fracture) is reported as “Significant improvement”, the defect fill (femoral bone fracture) is reported as “Significant improvement” and the “endosteal and periosteal proliferation” value (femoral bone fracture) is reported as “Significant improvement”. The “concentration without significant cytotoxic effect” value [1] was “up to 27 μM” and the “concentration without significant cytotoxic effect” value (MUTZ-3 cells) was “up to 27 μM”.
